Data set [1] relates to human epidermal HaCaT keratinocytes. Briefly: fluorometric CyQUANT cell proliferation study (DNA content). The format is cell-based. The following applies: 0.00005, 0.0005, 0.005% caffeine; 24, 48 or 72 hours; best effects after 72 hours. As for the experimental part:
To investigate the effect of caffeine on cell proliferation of human epidermal HaCaT keratinocytes, human HaCaT keratinocytes were subjected to a CyQUANT viability assay, wherein the following series of experiments were performed: • 1. P22 Experiment 1 (biological assay 1) • 2. P24 Experiment 2 (biological assay 2).
The trial durations were 24, 48 or 72 hours.
The study was carried out by fluorometric CyQUANT study, wherein the DNA content was measured, reflecting cell proliferation.

The test system of data set [2] is VEGF. Briefly: Q-PCR, VEGF mRNA expression in HaCaT cell lysates. The format is cell-based, human. To be noted: all caffeine concentrations; 24 hours; Experiments 1 and 2. As for the experimental part:
(§1) For Q-PCR: Determination of VEGF, HGF and EGF mRNA expression in cell lysates • 2. For ELISA: Determination of VEGF, HGF and EGF protein synthesis/secretion into the culture medium
(§2) The initial cell count was • 1. for Q-PCR: 140,000 cells/well in 1500 μl culture medium • 2. for ELISA: 140,000 cells/well in 1.500 μl culture medium.
(§3) The trial duration for • 1. Q-PCR was 24 hours (single treatment at time 0 h) • 2. ELISA was 48 hours (double treatment at time 0 h and 24 h without changing the medium).
(§4) The study was carried out • 1. for Q-PCR by determining VEGF mRNA expression in cell lysates • 2. for ELISA by determining VEGF protein synthesis/secretion in the culture medium.

In data set [3] the test system is VEGF. Briefly: ELISA, VEGF protein synthesis/secretion into the culture medium of HaCaT. The format is cell-based, human. The following applies: 48 hours. On the procedure:
as §1, §2, §3, §4
(An ELISA detects its analyte on a solid surface through an enzyme-linked reagent.)

Data set [4] concerns GM-CSF. Briefly: Q-PCR, experiments regarding GM-CSF in HaCaT. The following applies: all tested caffeine concentrations; 24 h; Experiments 1 and 2. It counts as cell-based, human. As for the experimental part:
as §1, §2, §3

Data set [5] concerns GM-CSF. Briefly: ELISA, experiments regarding GM-CSF in HaCaT. It counts as cell-based, human. The following applies: 48 h. On the procedure: as §1, §2, §3
Data set [6] deals with TGFβ1. Briefly: Q-PCR, TGFβ1 mRNA expression in HaCaT. The format is cell-based, human. To be noted: all tested caffeine concentrations; 24 h; Experiments 1 and 2.
In the next data set the test system is TGFβ2. Briefly: Q-PCR, TGFβ2 mRNA expression in HaCaT. The format is cell-based, human.
The subject of data set [7] is TGFβ1. Briefly: ELISA, TGFβ1-specific protein in HaCaT. The format is cell-based, human. The following applies: 48 h; both experiments.
Data set [8] deals with HGF. Briefly: Q-PCR, HGF mRNA expression in HaCaT cell lysates. The format is cell-based, human. To be noted: both experiments. As for the experimental part: as §1, §2, §3
Data set [9] has as its system HGF. Briefly: ELISA, HGF protein synthesis/secretion in HaCaT. The format is cell-based, human. To be noted: both experiments. As for the experimental part:
as §1, §2, §3

In data set [10] the test system is TNFα. Briefly: Q-PCR, TNFα-specific mRNA in HaCaT. The format is cell-based, human. To be noted: both experiments.
The subject of data set [11] is TNFα. Briefly: ELISA, TNFα-specific protein in HaCaT. It counts as cell-based, human. To be noted: both experiments.
Data set [12] relates to human epidermal HaCaT keratinocytes. Briefly: colourimetric MTT viability study.
Experimental: To investigate the effect of caffeine on the biological functions of human epidermal HaCaT keratinocytes, cell experiments were performed on human epidermal HaCaT keratinocytes, wherein the following studies were carried out: • 1. P13-A biological assay 1 with two independent studies • 2. P13-B biological assay 2 with two independent studies.
The initial cell count was 5000 cells/well in 100 μl culture medium.
The culture medium was HaCaT medium (DMEM with the addition of 10% FBS, 1% penicillin-streptomycin, 0.5% fungizone).
The treatment groups were as follows: • 1. Control group (CTRL) • 2. 0.00005% caffeine • 3. 0.0001% caffeine • 4. 0.0005% caffeine • 5. 0.001% caffeine • 6. 0.005% caffeine
The trial durations were 24, 48 and 72 hours.
The study took the form of a colourimetric MTT study.
[13] abbreviates: 0.0005% caffeine, both experiments.

Turning to `Cn1c(=O)c2c(ncn2C)n(C)c1=O` [caffeine], the “cell proliferation (DNA content)” value in [1] was “appears to promote cell proliferation”. Besides, in the data set on VEGF [2], the “mRNA expression of VEGF compared to the control group” value is recorded as “appear to increase mRNA expression of VEGF”. The “VEGF protein production/secretion compared to the control group” value was “increases VEGF protein production/secretion” in the data set on VEGF [3] (setting [13]) and “also showed an effect” in the data set with VEGF [3] (0.005% caffeine, Experiment 2). For the same molecule, the “mRNA expression of VEGF compared to the control group (under experiments regarding GM-CSF)” value in the data set with GM-CSF [4] is reported as “apparently increased the mRNA expression of VEGF”. Also, the “VEGF protein production/secretion compared to the control group (under experiments regarding GM-CSF)” value is given as “also showed an effect” in the data set with GM-CSF [5] (0j.005% caffeine, Experiment 2) and “increased VEGF protein production/secretion” in the data set on GM-CSF [5] (setting [13]). Further, the “mRNA expression of TGFβ1” value in the data set with TGFβ1 [6] is “None of the tested caffeine concentrations changed the mRNA expression of TGFβ1”. In addition, in the data set with TGFβ2 (certain caffeine concentrations, 24 h, Experiment 2), the “mRNA expression of TGFβ2” value is listed as “apparently increase mRNA expression of TGFβ2”. In addition, in the data set on TGFβ2 (despite contradictory results in the two Q-PCR experiments), the “synthesis/production/secretion of TGFβ2 (overall conclusion)” value is on record as “most likely does not alter”. The “level of TGFβ1-specific protein” value with TGFβ1 [7] was “below the detection limit”. The “expression of HGF-specific mRNA” value in the data set on HGF [8] is listed as “below the detection limit”. Besides, in the data set with HGF [9], the “expression of HGF-specific protein” value is recorded as “below the detection limit”. For the same molecule, in the data set on TNFα [10], the “expression of TNFα-specific mRNA” value is reported as “below the detection limit”. In addition, the “expression of TNFα-specific protein” value in the data set with TNFα [11] is reported as “below the detection limit”. Besides, the cytotoxicity entry in [12] (0.00005-0.005% caffeine, 24, 48 and 72 hours) is on record as “none of the concentrations tested showed cytotoxicity”. In addition, the “number of viable cells” value in data set [12] (certain concentrations of caffeine) was “increased the number of viable cells”.

These data come from patent US20240180914A1, “ORAL GEL COMPOSITION AND USE THEREOF” (DR. KURT WOLFF GMBH & CO. KG, priority 2021, published 2024).
